Source: patent publication US12103915B2, “TEAD inhibitors and methods of uses thereof” (Insilico Medicine IP Limited, priority 2022, dated 2024)

How the values were obtained:
[1] = system: NCI-H226 cells; test: Cell growth assay (CellTiter-Glo); format: cell-based, human; conditions: Homo sapiens, NCI-H226, 168 h, 7 days treatment, CellTiter-Glo luminescence, read-out: H226 CTG IC50
Description: Example A: Cell Growth Assay
CellTiter-Glo reagent (CTG reagent, Promega, G7573).
[…] Also seeding an extra plate as Day 0 control measurement. The microplates were incubated at 37° C., 5% CO2 overnight.
Compounds were 3-fold serial diluted in DMSO and final top-concentration was […], 10 points. 0.3% DMSO as vehicle control. In addition, […] of CTG reagent was added into the extra plate and incubated at room temperature for 30 minutes and detected luminescence signals as Day 0 control by using EnVision (PerkinElmer, 2104 Mutilabel Reader).
Incubated other compounds treated plates at 37° C. for another 7 days and […] of CTG reagent was added into the plates and incubated at room temperature for 30 minutes and detected luminescence signals.
Day 0 luminescence signals were used as negative control or baseline. • Signalday0=average luminescence signals of Day 0 control cells. • Signalblank control=average luminescence signals of blank control. • SignalDMSO vehicle control=average luminescence signals of Day 7 DMSO vehicle control cells. • Signalcpds treatment=luminescence signals of Day 7 compounds treatment cells. Inhibition %=1−(Signalcpds treatment−Signalblank control)/(SignalDMSO vehicle control−Signalblank control)*100.
(Inhibitory concentration 50% (IC50) and maximum inhibition % were calculated using dose response curves.

[2] = biological target: TEAD1 (Homo sapiens, UniProt P28347); test: Thermal shift assay TEAD1; format: binding
TEAD1, sequence (P28347 whole entry, species assumed): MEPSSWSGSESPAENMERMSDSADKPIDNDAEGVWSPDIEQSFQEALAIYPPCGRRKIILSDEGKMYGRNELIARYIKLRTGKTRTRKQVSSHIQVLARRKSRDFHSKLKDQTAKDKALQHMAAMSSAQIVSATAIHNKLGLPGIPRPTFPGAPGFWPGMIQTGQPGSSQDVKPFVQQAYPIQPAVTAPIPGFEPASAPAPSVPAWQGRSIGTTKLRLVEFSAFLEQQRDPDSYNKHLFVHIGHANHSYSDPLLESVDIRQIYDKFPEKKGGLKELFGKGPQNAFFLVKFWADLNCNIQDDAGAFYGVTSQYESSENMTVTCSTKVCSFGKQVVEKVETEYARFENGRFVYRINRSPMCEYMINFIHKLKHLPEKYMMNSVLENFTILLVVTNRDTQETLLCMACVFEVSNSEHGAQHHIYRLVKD
Description: (§1) Example B: Thermal Shift Assay
(§2) 1) Prepare a fresh dilution of Protein Thermal Shift™ Dye (Applied Biosystems, 1000×) to 8× by […].
(§3) 2) To ensure the same DMSO concentration, the compounds were diluted as follows: Prepare 10 mM stock solution of compounds;
(§4) The final DMSO concentration was 0.1%
(§5) 10 μM: Diluting stock solution to 100 μM by using PBS.
(§6) 1 μM: Diluting stock solution to 1 mM by using DMSO, then dilute to 10 μM by using PBS.
(§7) TEAD1: the stock concentration was 2.9 mg/ml; the final concentration was 0.2 mg/ml. TEAD2: the stock concentration was 1.8 mg/ml; the final concentration was 0.08 mg/ml.
(§8) 4) Place the appropriate reaction plate or tubes on ice, then prepare the protein melt reactions:
(§9) 5) Pipet each reaction up and down 10 times to mix well.
(§10) 6) Seal the plate with MicroAmp™ Optical Adhesive Film, spin it at 1000 rpm for 1 minute.
(§11) 7) Set up and run on the qPCR instrument.
(§12) Using thermal Shift™ Software v1.3 to analysis.

[3] = biological target: TEAD2 (Homo sapiens, UniProt Q15562); test: Thermal shift assay TEAD2; format: binding
TEAD2, sequence (Q15562 whole entry, species assumed): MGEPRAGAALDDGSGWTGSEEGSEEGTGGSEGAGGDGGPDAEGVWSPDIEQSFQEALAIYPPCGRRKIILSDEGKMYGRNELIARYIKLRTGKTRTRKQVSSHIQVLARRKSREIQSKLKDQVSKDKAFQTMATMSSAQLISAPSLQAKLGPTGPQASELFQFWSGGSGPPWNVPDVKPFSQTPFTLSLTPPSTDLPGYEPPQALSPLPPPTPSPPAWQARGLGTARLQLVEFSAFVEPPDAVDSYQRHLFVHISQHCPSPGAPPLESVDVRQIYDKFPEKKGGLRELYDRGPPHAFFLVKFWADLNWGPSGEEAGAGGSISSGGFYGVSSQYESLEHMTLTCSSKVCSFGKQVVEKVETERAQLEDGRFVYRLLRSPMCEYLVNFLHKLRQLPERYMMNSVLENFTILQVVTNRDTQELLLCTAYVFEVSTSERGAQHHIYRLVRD
Description: as §1, §2, §3, §4, §5, §6, §7, §8, §9, §10, §11, §12

[4] = biological target: TEAD3 (Homo sapiens, UniProt Q99594); test: Thermal shift assay TEAD3; format: binding
TEAD3, sequence (Q99594 whole entry, species assumed): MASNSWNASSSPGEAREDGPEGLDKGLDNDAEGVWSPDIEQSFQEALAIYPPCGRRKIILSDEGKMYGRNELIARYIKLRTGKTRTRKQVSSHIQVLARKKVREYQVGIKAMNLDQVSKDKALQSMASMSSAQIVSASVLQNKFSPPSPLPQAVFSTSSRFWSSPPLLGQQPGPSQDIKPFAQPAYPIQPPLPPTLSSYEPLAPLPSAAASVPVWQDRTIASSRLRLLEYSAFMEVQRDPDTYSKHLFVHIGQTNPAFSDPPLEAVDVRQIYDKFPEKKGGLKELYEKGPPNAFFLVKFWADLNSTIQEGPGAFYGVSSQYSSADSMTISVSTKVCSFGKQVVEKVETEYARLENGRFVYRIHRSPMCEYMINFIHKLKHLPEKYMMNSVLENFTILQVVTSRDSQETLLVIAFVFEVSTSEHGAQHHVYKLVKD
Description: as §1, §2, §3, §4, §5, §6
TEAD3: the stock concentration was 2.4 mg/ml; the final concentration was 0.1 mg/ml.
as §8, §9, §10, §11, §12

[5] = biological target: TEAD4 (Homo sapiens, UniProt Q15561); test: Thermal shift assay TEAD4; format: binding
TEAD4, sequence (Q15561 whole entry, species assumed): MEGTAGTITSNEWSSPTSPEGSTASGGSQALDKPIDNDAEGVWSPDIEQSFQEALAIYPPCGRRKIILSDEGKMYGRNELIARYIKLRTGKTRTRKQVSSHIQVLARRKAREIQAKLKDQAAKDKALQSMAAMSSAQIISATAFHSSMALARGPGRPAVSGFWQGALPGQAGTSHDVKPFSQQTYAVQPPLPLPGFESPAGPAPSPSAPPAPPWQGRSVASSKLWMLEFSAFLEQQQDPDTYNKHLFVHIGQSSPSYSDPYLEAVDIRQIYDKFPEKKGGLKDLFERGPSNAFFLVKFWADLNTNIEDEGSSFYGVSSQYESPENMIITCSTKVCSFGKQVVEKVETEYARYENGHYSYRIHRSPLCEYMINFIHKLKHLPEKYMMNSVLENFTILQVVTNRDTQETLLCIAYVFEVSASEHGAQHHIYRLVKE
Description: as §1, §2, §3, §4, §5, §6
TEAD4: the stock concentration was 2.3 mg/ml; the final concentration was 0.1 mg/ml.
as §8, §9, §10, §11, §12

SMILES	IC50 [1] [nM]	TEAD1 ΔTm [2] [°C]	TEAD2 ΔTm [3] [°C]	TEAD3 ΔTm [4] [°C]	TEAD4 ΔTm [5] [°C]
CNC(=O)[C@@H]1CC1c1cc(OCc2ccc(C(F)(F)F)cc2)cc2c1cnn2C (mixture of isomers) [Example 37]	1000 to 30000	0.2	0.9	0.1	0.1
CNC(=O)[C@@H]1CC1c1cc(-c2ccc(C(F)(F)F)cc2)cc2cccnc12 (mixture of isomers) [Example 38]	100 to 500	1.1	0.8	0.5	0.2
CNC(=O)[C@@H]1CC1c1cc(-c2ccc(C(F)(F)F)cc2)cc2scnc12 (mixture of isomers) [Example 39]	1000 to 30000	0	0	0	0
CNS(=O)(=O)[C@@H]1CC1c1cc(Oc2ccc(C(F)(F)F)cc2)cc2cn(C)nc12 (mixture of isomers) [Example 51]	1000 to 30000	7.5	9.7	10.6	9.1
CC(C)NC(=O)[C@@H]1CC1c1cc(Oc2ccc(C(F)(F)F)cc2)cc2cn(C)nc12 (mixture of isomers) [Example 56]	< 100	8.3	9	7.2	8.6
CC(NC(=O)[C@@H]1CC1c1cc(Oc2ccc(C(F)(F)F)cc2)cc2cn(C)nc12)c1ccccn1 (mixture of isomers) [Example 57]	100 to 500	7.6	9.4	12.4	14

Now from value to molecule:

IC50 [1] [nM]	TEAD1 ΔTm [2] [°C]	TEAD2 ΔTm [3] [°C]	TEAD3 ΔTm [4] [°C]	TEAD4 ΔTm [5] [°C]	SMILES
100 to 500	9.2	11.1	0.4	6.6	CNC(=O)[C@@H]1CC1c1cc(Oc2ccc(C(F)(F)F)cc2)cc2cn(C3CC3)nc12 (mixture of isomers) [Example 78]
100 to 500	8.1	12.3	1.0	7.7	CNC(=O)[C@@H]1CC1c1cc(Oc2ccc(C(F)(F)F)cc2)cc2cn(C(F)F)nc12 (mixture of isomers) [Example 79]
100 to 500	6.0	10.5	5.1	6.2	CNC(=O)[C@@H]1CC1c1cc(Oc2ccc(C(F)(F)F)cc2)cc2cccnc12 (mixture of isomers) [Example 80]
500 to 1000	5.5	9.6	8.9	8.2	CNS(=O)(=O)[C@@H]1CC1c1cc(Oc2ccc(C(F)(F)F)cc2)cc2cccnc12 (mixture of isomers) [Example 81]
100 to 500	6.7	9.3	1.3	6.4	Cn1cc2cc(OC3CC4(C3)CC(F)(F)C4)cc(C3C[C@H]3C(=O)O)c2n1 (mixture of isomers) [Example 93]
100 to 500	3.3	6.5	0.7	2.6	CNC(=O)[C@@H]1CC1c1cc(OC2CC3(C2)CC(F)(F)C3)cc2cn(C)nc12 (mixture of isomers) [Example 94]
1000 to 30000	10.6	18.2	13.1	9.9	O=C(O)[C@@H]1C[C@H]1c1cc(Oc2ccc(C(F)(F)F)cc2)cc2c1NCCC2 (racemic) [Example 144]
100 to 500	4.8	9.9	1.0	2.9	CNC(=O)[C@@H]1C[C@H]1c1cc(Oc2ccc(C(F)(F)F)cc2)cc2c1NCCC2 (racemic) [Example 145]
100 to 500	5.5	12.0	1.0	6.7	CNS(=O)(=O)[C@@H]1C[C@H]1c1cc(Oc2ccc(C(F)(F)F)cc2)cc2c1NCCC2 (racemic) [Example 146]
